Consider seven compounds from PMC11027099 (ACS Chemical Neuroscience, 2024).

Assay [1] addresses T1, cone CNG channel (CNGA3/CNGB3) (Homo sapiens, UniProt Q16281+Q9NQW8).
T1 construct: heterotetramer 3 CNGA3 : 1 CNGB3; subunits in pGEMHE, cRNA ratio 1:2.5, expressed in Xenopus laevis oocytes; inside-out patches
T1 sequence (Q16281 1-694): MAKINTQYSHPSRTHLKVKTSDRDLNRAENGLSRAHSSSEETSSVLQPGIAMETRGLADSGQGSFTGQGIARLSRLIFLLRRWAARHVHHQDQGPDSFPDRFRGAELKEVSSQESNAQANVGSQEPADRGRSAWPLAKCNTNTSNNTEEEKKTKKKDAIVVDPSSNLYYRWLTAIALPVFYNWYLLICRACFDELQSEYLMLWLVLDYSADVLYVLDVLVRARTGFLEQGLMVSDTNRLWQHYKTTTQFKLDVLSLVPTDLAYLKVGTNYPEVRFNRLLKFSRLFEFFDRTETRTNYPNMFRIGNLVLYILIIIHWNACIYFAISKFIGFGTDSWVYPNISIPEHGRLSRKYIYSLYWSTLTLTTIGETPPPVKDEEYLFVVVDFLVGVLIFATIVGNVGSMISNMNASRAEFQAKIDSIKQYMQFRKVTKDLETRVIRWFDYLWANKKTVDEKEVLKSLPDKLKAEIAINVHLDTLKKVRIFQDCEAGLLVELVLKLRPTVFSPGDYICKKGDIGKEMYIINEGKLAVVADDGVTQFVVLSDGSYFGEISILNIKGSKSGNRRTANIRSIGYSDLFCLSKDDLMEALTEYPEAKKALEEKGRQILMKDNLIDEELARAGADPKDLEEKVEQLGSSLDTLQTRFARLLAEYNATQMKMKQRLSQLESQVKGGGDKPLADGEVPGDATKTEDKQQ
T1 sequence (Q9NQW8 1-809): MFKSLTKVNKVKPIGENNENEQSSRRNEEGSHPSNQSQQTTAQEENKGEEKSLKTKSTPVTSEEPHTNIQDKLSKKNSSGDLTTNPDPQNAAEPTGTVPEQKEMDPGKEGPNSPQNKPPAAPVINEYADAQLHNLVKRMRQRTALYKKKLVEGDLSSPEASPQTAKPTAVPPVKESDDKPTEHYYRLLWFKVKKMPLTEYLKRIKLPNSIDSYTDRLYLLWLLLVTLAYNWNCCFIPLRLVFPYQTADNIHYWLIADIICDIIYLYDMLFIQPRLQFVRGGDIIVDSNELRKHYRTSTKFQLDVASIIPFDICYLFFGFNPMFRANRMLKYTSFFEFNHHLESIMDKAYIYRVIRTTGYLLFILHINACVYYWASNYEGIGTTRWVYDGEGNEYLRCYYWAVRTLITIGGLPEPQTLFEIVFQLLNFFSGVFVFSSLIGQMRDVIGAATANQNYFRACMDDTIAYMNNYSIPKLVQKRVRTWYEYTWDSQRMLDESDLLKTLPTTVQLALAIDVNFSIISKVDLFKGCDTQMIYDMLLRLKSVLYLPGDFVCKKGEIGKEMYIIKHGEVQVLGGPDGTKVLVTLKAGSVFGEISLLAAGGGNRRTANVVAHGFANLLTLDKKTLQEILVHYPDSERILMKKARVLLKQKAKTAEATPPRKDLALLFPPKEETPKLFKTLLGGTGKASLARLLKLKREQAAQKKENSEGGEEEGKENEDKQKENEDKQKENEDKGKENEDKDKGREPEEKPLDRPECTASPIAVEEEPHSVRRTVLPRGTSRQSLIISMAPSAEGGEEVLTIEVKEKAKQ
Kind of assay: inside-out patch clamp, Xenopus oocytes, Hill fit. Format: cell-based. For orientation: In patch-clamp work, channel activity is measured electrically.

Assay [2] addresses T2, rod CNG channel (CNGA1/CNGB1a) (Bos taurus, UniProt Q00194+Q28181).
T2 construct: heterotetramer 3 CNGA1 : 1 CNGB1a; subunits in pGEMHE, cRNA ratio 1:4, expressed in Xenopus laevis oocytes; inside-out patches
The experiment in a line: inside-out patch clamp, Xenopus oocytes, Hill fit. Format: cell-based.

For assay [3], the target named is T1, cone CNG channel (CNGA3/CNGB3). Kind of assay: inside-out patch clamp, Xenopus oocytes, current relative to saturating cGMP. The following applies: partial agonist; saturating analogue vs 1 mM cGMP, pH 7.4, room temperature. The assay is classed as biochemical.
Assay [4] has as its target T2, rod CNG channel (CNGA1/CNGB1a). Described as above. Format: biochemical. The settings on record: partial agonist; up to 5 mM analogue vs 3 mM cGMP, pH 7.4, room temperature.

pEC50: −log10 of the molar value. Read-outs that look alike come from different tables or passages of the source.

T2 sequence (Q00194 whole entry): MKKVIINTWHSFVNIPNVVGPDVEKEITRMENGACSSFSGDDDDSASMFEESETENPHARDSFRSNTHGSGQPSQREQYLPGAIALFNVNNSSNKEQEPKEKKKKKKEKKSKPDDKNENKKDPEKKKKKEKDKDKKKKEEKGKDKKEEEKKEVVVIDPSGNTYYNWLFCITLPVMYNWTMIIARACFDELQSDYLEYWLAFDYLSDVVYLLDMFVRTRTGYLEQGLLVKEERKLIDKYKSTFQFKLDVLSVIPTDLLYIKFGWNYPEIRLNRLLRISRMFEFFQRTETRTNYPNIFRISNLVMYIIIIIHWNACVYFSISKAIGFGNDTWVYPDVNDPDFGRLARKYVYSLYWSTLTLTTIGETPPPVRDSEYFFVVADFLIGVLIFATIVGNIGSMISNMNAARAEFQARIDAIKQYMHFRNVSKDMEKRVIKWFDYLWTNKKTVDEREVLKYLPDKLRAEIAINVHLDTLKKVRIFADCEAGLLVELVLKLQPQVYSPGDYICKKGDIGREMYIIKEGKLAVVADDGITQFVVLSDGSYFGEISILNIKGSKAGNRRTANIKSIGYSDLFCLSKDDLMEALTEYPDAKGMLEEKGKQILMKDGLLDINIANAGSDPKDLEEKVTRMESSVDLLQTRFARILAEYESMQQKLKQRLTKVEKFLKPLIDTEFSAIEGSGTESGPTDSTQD
T2 sequence (Q28181 whole entry): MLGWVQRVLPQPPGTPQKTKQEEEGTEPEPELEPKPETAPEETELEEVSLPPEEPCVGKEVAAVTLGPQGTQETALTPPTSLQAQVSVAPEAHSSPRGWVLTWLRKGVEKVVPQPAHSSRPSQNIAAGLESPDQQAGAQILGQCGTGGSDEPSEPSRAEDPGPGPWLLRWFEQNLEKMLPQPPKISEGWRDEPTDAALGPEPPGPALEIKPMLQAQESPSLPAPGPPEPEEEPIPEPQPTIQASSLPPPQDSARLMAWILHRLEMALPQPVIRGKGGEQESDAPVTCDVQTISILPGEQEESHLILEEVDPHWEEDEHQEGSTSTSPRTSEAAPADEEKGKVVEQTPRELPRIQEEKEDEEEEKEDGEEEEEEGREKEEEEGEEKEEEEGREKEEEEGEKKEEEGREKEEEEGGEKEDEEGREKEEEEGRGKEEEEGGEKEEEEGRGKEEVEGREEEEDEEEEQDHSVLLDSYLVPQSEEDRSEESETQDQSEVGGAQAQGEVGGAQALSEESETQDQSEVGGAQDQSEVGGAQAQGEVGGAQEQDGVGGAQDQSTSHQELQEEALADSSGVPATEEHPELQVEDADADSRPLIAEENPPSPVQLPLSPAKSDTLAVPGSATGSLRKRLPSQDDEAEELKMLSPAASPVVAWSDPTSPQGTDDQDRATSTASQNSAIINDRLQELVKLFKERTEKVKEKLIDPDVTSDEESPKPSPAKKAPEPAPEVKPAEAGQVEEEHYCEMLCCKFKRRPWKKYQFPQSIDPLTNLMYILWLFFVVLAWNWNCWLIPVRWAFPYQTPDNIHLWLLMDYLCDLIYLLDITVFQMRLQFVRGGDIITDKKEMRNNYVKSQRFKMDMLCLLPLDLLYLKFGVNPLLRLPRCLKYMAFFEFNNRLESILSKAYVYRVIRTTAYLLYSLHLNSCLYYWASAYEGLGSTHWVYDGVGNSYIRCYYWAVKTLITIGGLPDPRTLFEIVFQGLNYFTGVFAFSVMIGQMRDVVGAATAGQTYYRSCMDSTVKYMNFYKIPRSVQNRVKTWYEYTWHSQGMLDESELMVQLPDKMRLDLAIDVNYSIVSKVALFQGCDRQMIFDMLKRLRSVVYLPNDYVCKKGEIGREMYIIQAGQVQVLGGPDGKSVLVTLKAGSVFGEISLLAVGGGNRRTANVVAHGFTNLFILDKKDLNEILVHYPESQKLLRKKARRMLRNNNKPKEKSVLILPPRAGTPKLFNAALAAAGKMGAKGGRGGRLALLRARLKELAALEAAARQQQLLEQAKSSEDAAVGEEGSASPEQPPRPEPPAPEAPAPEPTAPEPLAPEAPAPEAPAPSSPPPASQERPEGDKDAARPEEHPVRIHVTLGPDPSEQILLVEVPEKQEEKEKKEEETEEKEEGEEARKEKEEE

For `Nc1nc2c(ncn2[C@@H]2O[C@@H]3COP(=O)(O)O[C@H]3[C@H]2O)c(=O)[nH]1` [cGMP], the pEC50 in assay [1] was 4.73.

Take `Nc1nc2c(nc(Sc3ccc(Cl)cc3)n2[C@@H]2O[C@@H]3CO[P@](O)(=S)O[C@H]3[C@H]2O)c(=O)[nH]1` [compound 7, Sp-8-pCPT-cGMPS]: the negative-log EC50 (pEC50) is 3.88 in assay [1] and 4.37 in assay [2].

In the case of `Nc1nc2c(ncn2[C@@H]2O[C@@H]3COP(O)(=S)O[C@H]3[C@H]2O)c(=O)[nH]1` (stereo partly shown) [compound 4, Rp-cGMPS], the “% activation relative to cGMP” value in assay [3] is ~ 43.6%; in assay [4], ~ 11%.

In the case of `Nc1nc(=O)c2nc(Sc3ccc(Cl)cc3)n([C@@H]3O[C@@H]4COP(=O)(O)O[C@H]4[C@H]3O)c2[nH]1` [compound 2, 8-pCPT-cGMP], the negative logarithm of the EC50 (pEC50) was 7.05 in assay [1] and 6.11 in assay [2].

Take `Nc1nc2c(ncn2[C@@H]2O[C@@H]3CO[P@](O)(=S)O[C@H]3[C@H]2O)c(=O)[nH]1` [compound 5, Sp-cGMPS]: the “% activation relative to cGMP” value in assay [4] is listed as ~ 62.8%. In assay [1], this compound showed a pEC50 of 5.54.

For the compound `O=c1c2ncn([C@@H]3O[C@@H]4COP(=O)(O)O[C@H]4[C@H]3O)c2nc2[nH]c(-c3ccccc3)cn12` [compound 3, PET-cGMP], the “% activation relative to cGMP” value in assay [3] was “PET-cGMP, Rp-cGMPS, Sp-cGMPS, and Sp-8-pCPT-cGMPS, was only partially effective when activating cone CNG channels”; in assay [4], ~ 41.2%.

As for `Nc1nc2c(nc(Br)n2[C@@H]2O[C@@H]3COP(=O)(O)O[C@H]3[C@H]2O)c(=O)[nH]1` [compound 1, 8-Br-cGMP], the negative-log EC50 (pEC50) is 5.98 in assay [1] (channel activation (agonist), +100 mV, pH 7.4, room temperature) and 5.21 in assay [2].

A word on the pEC50: it is the negative decadic logarithm of the EC50, by convention in mol/L.
